Columns and labels:
H460 (human NSCLC) cells = test: Cell uptake of F-18 labeled tracer in H460 cells; assay type: cell-based; conditions: 0.25 MBq, 60 min incubation, PBS 0.1% BSA
Procedure: FIG. 4: Time dependent uptake of (2S)-2-amino-5-[3-[^18F]fluoropropyl]hexanedioic acid was determined. H460 cells were incubated with 0.25 MBq (2S)-2-amino-5-[3-[^18F]fluoropropyl]hexanedioic acid for up to 60 min and the cell-bound fraction was determined after 10, 20, 30 and 60 min)
Cell uptake & Retention of (2S)-2-amino-5-[3-[^18F]fluoropropyl]hexanedioic acid—For determination of the biological activity of (2S)-2-amino-5-[3-[^18F]fluoropropyl]hexanedioic acid, the F-18 labeled compound was used as tracer in a cell uptake experiment using H460 (human NSCLC) cells. Approximately 100.000 cells were incubated with 0.25 MBq (2S)-2-amino-5-[3-[^18F]fluoropropyl]hexanedioic acid for up to 60 minutes in PBS-buffer containing 0.1% BSA and the cell-bound fraction was determined. A time-dependent uptake was observed during the 60 min incubation period. Approximately 20% of applied dose was taken up by the cells during the 60 min incubation period (FIG. 4).

H460 tumor cells = test: Retention of activity in H460 tumor cells under efflux conditions; assay type: cell-based, human; conditions: H460 cells loaded 30 min, then 30 min incubation in new buffer (efflux conditions)
Procedure: FIG. 5: Retention of (2S)-2-amino-5-[3-[^18F]fluoropropyl]hexanedioic acid in H460 tumor cells. H460 cells were loaded with 0.25 MBq (2S)-2-amino-5-[3-[^18F]fluoropropyl]hexanedioic acid for 30 min in PBS/BSA. After washing, the cells were incubated with new buffer (without radioactivity) for additional 10, 20, 30 min. The release of radioactivity into the supernatant as well as the retention inside the cells was determined.
In a second experiment, the retention of activity in tumor cells was examined. H460 cells were loaded with 0.25 MBq (2S)-2-amino-5-[3-[^18F]fluoropropyl]hexanedioic acid for 30 minutes in PBS/BSA-buffer. After this uptake, the buffer was removed and the cells were washed with PBS. The cells were then incubated with new PBS-buffer (without activity) for up to 30 min. The release of activity into the supernatant as well as the retention of activity inside the cells was examined. It was discovered, that more than 80% of activity were retained in the tumor cells after 30 min incubation under these efflux conditions (see FIG. 5).

[1] = system: NCI-H460 (human NSCLC) tumor bearing nude-rats; test: PET imaging in NCI-H460 tumor bearing nude-rats; assay type: in vivo, nude-rats (RH-Foxn1 nu/nu); conditions: 8.35 MBq i.v., PET at 60 min p.i. for 10 min
Procedure: FIG. 6: PET-Imaging of (2S)-2-amino-5-[3-[^18F]fluoropropyl]hexanedioic acid in H460 tumor bearing rats. 8.35 MBq of radioactive tracer was injected i.v. into rats. PET images were obtained using the Siemens Inveon PET/CT scanner from 60 min p.i. for 10 min.
PET imaging. (2S)-2-amino-5-[3-[^18F]fluoropropyl]hexanedioic acid was examined in NCI-H460 (human NSCLC) tumor bearing nude-rats (RH-Foxn1 nu/nu) using PET-Imaging. 8.35 MBq of (2S)-2-amino-5-[3-[^18F]fluoropropyl]hexanedioic acid was injected into the rat. PET images were acquired at 60 min p.i. for 10 min. […] 3.2% of the injected dose was taken up per gram of tumor as was determined by region of interest (ROI) analysis (FIG. 6).

## N[C@@H](CCC(CCC[18F])C(=O)O)C(=O)O (stereo partly drawn) [(2S)-2-amino-5-[3-[^18F]fluoropropyl]hexanedioic acid]
H460 (human NSCLC) cells
  cell uptake (cell-bound fraction): Approximately 20 % of applied dose
H460 tumor cells
  activity retained in the tumor cells: more than 80%
[1]
  tumor uptake by region of interest (ROI) analysis: 3.2 % of the injected dose per gra
  visibility of the tumor in PET images: very well visible
